Measured values reported in ChEMBL document CHEMBL3779796, “One-pot synthesis and antimicrobial evaluation of novel 3-cyanopyridine derivatives of (-)-β-pinene” (2016).
Converted amounts (≈) assume the structure as drawn.

Legend:
Type in all cases: functional
Klebsiella pneumoniae = experiment: Antimicrobial activity against Klebsiella pneumoniae after 24 hrs by serial two-fold microbroth dilution method
Klebsiella aerogenes = experiment: Antimicrobial activity against Enterobacter aerogenes after 24 hrs by serial two-fold microbroth dilution method
Staphylococcus aureus = experiment: Antimicrobial activity against Staphylococcus aureus after 24 hrs by serial two-fold microbroth dilution method
[1] = system: Staphylococcus epidermidis; experiment: Antimicrobial activity against Staphylococcus epidermidis after 24 hrs by serial two-fold microbroth dilution method
Candida albicans = experiment: Antimicrobial activity against Candida albicans after 48 hrs by serial two-fold microbroth dilution method

Compound	MIC (Klebsiella pneumoniae)	MIC (Klebsiella aerogenes)	MIC (Staphylococcus aureus)	MIC [1]	MIC (Candida albicans)
CC1(C)[C@H]2Cc3c(nc(O)c(C#N)c3-c3ccc(F)cc3)[C@@H]1C2	62.5 µg/mL (≈ 203 µM)	62.5 µg/mL (≈ 203 µM)	31.3 µg/mL (≈ 102 µM)	15.6 µg/mL (≈ 50.6 µM)	31.3 µg/mL (≈ 102 µM)
CC1(C)[C@H]2Cc3c(nc(O)c(C#N)c3-c3ccc(F)c(F)c3)[C@@H]1C2	62.5 µg/mL (≈ 192 µM)	62.5 µg/mL (≈ 192 µM)	31.3 µg/mL (≈ 95.9 µM)	15.6 µg/mL (≈ 47.8 µM)	15.6 µg/mL (≈ 47.8 µM)
CC1(C)[C@H]2Cc3c(nc(N)c(C#N)c3-c3ccc(F)c(F)c3)[C@@H]1C2	125 µg/mL (≈ 384 µM)	125 µg/mL (≈ 384 µM)	> 125 µg/mL	125 µg/mL (≈ 384 µM)	31.3 µg/mL (≈ 96.2 µM)
CC1(C)[C@H]2Cc3c(nc(O)c(C#N)c3-c3ccccc3Cl)[C@@H]1C2	125 µg/mL (≈ 385 µM)	62.5 µg/mL (≈ 192 µM)	125 µg/mL (≈ 385 µM)	125 µg/mL (≈ 385 µM)	125 µg/mL (≈ 385 µM)
CC1(C)[C@H]2Cc3c(nc(O)c(C#N)c3-c3ccc(Cl)cc3Cl)[C@@H]1C2	125 µg/mL (≈ 348 µM)	62.5 µg/mL (≈ 174 µM)	62.5 µg/mL (≈ 174 µM)	31.3 µg/mL (≈ 87.1 µM)	62.5 µg/mL (≈ 174 µM)
CC1(C)[C@H]2Cc3c(nc(O)c(C#N)c3-c3ccc(Cl)cc3)[C@@H]1C2	62.5 µg/mL (≈ 192 µM)	62.5 µg/mL (≈ 192 µM)	31.3 µg/mL (≈ 96.4 µM)	31.3 µg/mL (≈ 96.4 µM)	31.3 µg/mL (≈ 96.4 µM)
COc1ccc(-c2c(C#N)c(N)nc3c2C[C@H]2C[C@@H]3C2(C)C)cc1OC	> 125 µg/mL	> 125 µg/mL	> 125 µg/mL	125 µg/mL (≈ 358 µM)	62.5 µg/mL (≈ 179 µM)
CC1(C)[C@H]2Cc3c(nc(O)c(C#N)c3-c3ccc(C(F)(F)F)cc3)[C@@H]1C2	> 125 µg/mL	125 µg/mL (≈ 349 µM)	125 µg/mL (≈ 349 µM)	125 µg/mL (≈ 349 µM)	125 µg/mL (≈ 349 µM)
COc1cccc(-c2c(C#N)c(N)nc3c2C[C@H]2C[C@@H]3C2(C)C)c1	125 µg/mL (≈ 391 µM)	125 µg/mL (≈ 391 µM)	125 µg/mL (≈ 391 µM)	125 µg/mL (≈ 391 µM)	125 µg/mL (≈ 391 µM)
Cc1ccc(-c2c(C#N)c(N)nc3c2C[C@H]2C[C@@H]3C2(C)C)cc1	> 125 µg/mL	> 125 µg/mL	> 125 µg/mL	> 125 µg/mL	125 µg/mL (≈ 412 µM)
COc1ccccc1-c1c(C#N)c(O)nc2c1C[C@H]1C[C@@H]2C1(C)C	125 µg/mL (≈ 390 µM)	125 µg/mL (≈ 390 µM)	125 µg/mL (≈ 390 µM)	125 µg/mL (≈ 390 µM)	62.5 µg/mL (≈ 195 µM)
CC1(C)[C@H]2Cc3c(nc(N)c(C#N)c3-c3cccc(Br)c3)[C@@H]1C2	125 µg/mL (≈ 339 µM)	125 µg/mL (≈ 339 µM)	> 125 µg/mL	125 µg/mL (≈ 339 µM)	125 µg/mL (≈ 339 µM)
COc1cccc(-c2c(C#N)c(O)nc3c2C[C@H]2C[C@@H]3C2(C)C)c1	125 µg/mL (≈ 390 µM)	125 µg/mL (≈ 390 µM)	62.5 µg/mL (≈ 195 µM)	62.5 µg/mL (≈ 195 µM)	125 µg/mL (≈ 390 µM)
CC1(C)[C@H]2Cc3c(nc(N)c(C#N)c3-c3ccccc3Cl)[C@@H]1C2	125 µg/mL (≈ 386 µM)	125 µg/mL (≈ 386 µM)	125 µg/mL (≈ 386 µM)	125 µg/mL (≈ 386 µM)	125 µg/mL (≈ 386 µM)
COc1ccccc1-c1c(C#N)c(N)nc2c1C[C@H]1C[C@@H]2C1(C)C	> 125 µg/mL	> 125 µg/mL	> 125 µg/mL	125 µg/mL (≈ 391 µM)	125 µg/mL (≈ 391 µM)
CC1(C)[C@H]2Cc3c(nc(O)c(C#N)c3-c3cccc(O)c3)[C@@H]1C2	62.5 µg/mL (≈ 204 µM)	62.5 µg/mL (≈ 204 µM)	62.5 µg/mL (≈ 204 µM)	31.3 µg/mL (≈ 102 µM)	62.5 µg/mL (≈ 204 µM)
Cc1ccc(-c2c(C#N)c(O)nc3c2C[C@H]2C[C@@H]3C2(C)C)cc1	> 125 µg/mL	> 125 µg/mL	125 µg/mL (≈ 411 µM)	125 µg/mL (≈ 411 µM)	125 µg/mL (≈ 411 µM)
CC1(C)[C@H]2Cc3c(nc(N)c(C#N)c3-c3ccc(Cl)cc3)[C@@H]1C2	125 µg/mL (≈ 386 µM)	125 µg/mL (≈ 386 µM)	125 µg/mL (≈ 386 µM)	125 µg/mL (≈ 386 µM)	62.5 µg/mL (≈ 193 µM)
CC1(C)[C@H]2Cc3c(nc(O)c(C#N)c3-c3ccccc3)[C@@H]1C2	> 125 µg/mL	> 125 µg/mL	125 µg/mL (≈ 430 µM)	125 µg/mL (≈ 430 µM)	125 µg/mL (≈ 430 µM)
CC1(C)[C@H]2Cc3c(nc(N)c(C#N)c3-c3ccc(F)cc3)[C@@H]1C2	125 µg/mL (≈ 407 µM)	125 µg/mL (≈ 407 µM)	> 125 µg/mL	125 µg/mL (≈ 407 µM)	62.5 µg/mL (≈ 203 µM)
CC1(C)[C@H]2Cc3c(nc(N)c(C#N)c3-c3ccc(Br)cc3)[C@@H]1C2	125 µg/mL (≈ 339 µM)	125 µg/mL (≈ 339 µM)	125 µg/mL (≈ 339 µM)	125 µg/mL (≈ 339 µM)	62.5 µg/mL (≈ 170 µM)
CC1(C)[C@H]2Cc3c(nc(N)c(C#N)c3-c3cccc(O)c3)[C@@H]1C2	125 µg/mL (≈ 409 µM)	125 µg/mL (≈ 409 µM)	> 125 µg/mL	125 µg/mL (≈ 409 µM)	125 µg/mL (≈ 409 µM)
CC1(C)[C@H]2Cc3c(nc(O)c(C#N)c3-c3cccc(Br)c3)[C@@H]1C2	62.5 µg/mL (≈ 169 µM)	62.5 µg/mL (≈ 169 µM)	62.5 µg/mL (≈ 169 µM)	31.3 µg/mL (≈ 84.8 µM)	31.3 µg/mL (≈ 84.8 µM)
CC1(C)[C@H]2Cc3c(nc(N)c(C#N)c3-c3ccccc3)[C@@H]1C2	> 125 µg/mL	> 125 µg/mL	> 125 µg/mL	125 µg/mL (≈ 432 µM)	125 µg/mL (≈ 432 µM)
CC1(C)[C@H]2Cc3c(nc(O)c(C#N)c3-c3ccc(Br)cc3)[C@@H]1C2	62.5 µg/mL (≈ 169 µM)	125 µg/mL (≈ 339 µM)	62.5 µg/mL (≈ 169 µM)	62.5 µg/mL (≈ 169 µM)	31.3 µg/mL (≈ 84.8 µM)
CC1(C)[C@H]2CCC(=O)[C@@H]1C2	> 125 µg/mL	> 125 µg/mL	> 125 µg/mL	> 125 µg/mL	> 125 µg/mL
NC[C@H]1O[C@H](O[C@H]2[C@H](O)[C@@H](O[C@H]3O[C@H](CO)[C@@H](O)[C@H](N)[C@H]3O)[C@H](N)C[C@@H]2N)[C@H](O)[C@@H](O)[C@@H]1O [KANAMYCIN]	2 µg/mL (≈ 4.13 µM)	3.9 µg/mL (≈ 8.05 µM)	2 µg/mL (≈ 4.13 µM)	3.9 µg/mL (≈ 8.05 µM)	
CO[C@H]1/C=C/O[C@@]2(C)Oc3c(C)c(O)c4c(O)c(c(/C=N/N5CCN(C)CC5)c(O)c4c3C2=O)NC(=O)/C(C)=C\C=C\[C@H](C)[C@H](O)[C@@H](C)[C@@H](O)[C@@H](C)[C@H](OC(C)=O)[C@@H]1C [RIFAMPIN]					3.9 µg/mL (≈ 4.74 µM)
